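Step 1: Grow cells in 96-well plates. Step 2: Expose to compound for 48 hours at 5 concentrations. Step 3: Interpolate endpoints linearly; if unreached, use highest concentration. TGI: total growth inhibition.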 Where only a bound is given, the exact number is not on record here.

Some test systems named below: MDA-N; MDA-MB-231 breast; A498 renal; BT-549 breast; SNB-75 CNS; COLO 205 colon; HCT-116 colon.
Holding throughout (test): DTP human tumour cell line panel, 48 h

The term TGI denotes the concentration giving total growth inhibition. The low end stands for more potent growth arrest, the high end for less potent growth arrest. Turning to `CC1=C(C(=O)NNC(=O)C(N)=O)CC(C(=O)NNC(=O)C(N)=O)=C(C)N1`, the TGI in the assay with MDA-N, with MDA-MB-231 breast, in the assay with A498 renal, with BT-549 breast, with SNB-75 CNS and with COLO 205 colon was above 100 µM in each case. In the assay with HCT-116 colon, this compound displayed a TGI above 100 µM.
With `COCOc1cc(OC)c(Br)cc1C/C(=N/O)C(=O)OC`, the TGI with MDA-N was above 100 µM; in the assay with MDA-MB-231 breast it was above 100 µM; in the assay on BT-549 breast it was above 100 µM; with SNB-75 CNS it was 59.7 µM; with COLO 205 colon, above 100 µM; in the assay on HCT-116 colon it was above 100 µM.
In the case of `CCCC(=O)OCC1(CO)C/C(=C/CC(C(C)C)C(C)C)C(=O)O1` (stereo not given), the TGI with MDA-N, in the assay on MDA-MB-231 breast, with A498 renal, in the assay with BT-549 breast, in the assay with SNB-75 CNS and with COLO 205 colon was above 100 µM throughout. Further, the TGI in the assay on HCT-116 colon is above 100 µM.
Turning to `CC(C)(O)/C=C\P(C)(=O)c1ccccc1` (stereo not given), the total growth inhibition concentration (TGI) in the assay on MDA-N, with SNB-75 CNS, with COLO 205 colon and with HCT-116 colon was above 100 µM throughout.
On to `Cc1cc(S(=O)(=O)Nc2nc3ccccc3[nH]2)c(S)cc1Cl`, for which the TGI in the assay on MDA-N, in the assay on MDA-MB-231 breast, in the assay on A498 renal, in the assay with BT-549 breast, in the assay on SNB-75 CNS and in the assay with COLO 205 colon was above 100 µM each time. Moreover, the TGI in the assay with HCT-116 colon was determined as 76.5 µM.
On to `CCOc1ncn(-c2ccc(NC(=S)Nc3cnccn3)cc2)n1`, for which the TGI in the assay with MDA-N, in the assay on MDA-MB-231 breast, with BT-549 breast and with SNB-75 CNS was above 10 µM each time.
For the compound `CC(=O)c1cccc(Nc2c3ccccc3nc3occc23)c1`, the concentration for total growth inhibition (TGI) with MDA-N is above 100 µM; with MDA-MB-231 breast it was 67.7 µM; in the assay with A498 renal, 74.7 µM; with BT-549 breast, 54.3 µM; in the assay on COLO 205 colon it was 29.1 µM; with HCT-116 colon it was 18.4 µM.
As for `CC(C)(C)OC(=O)NNC(=O)C1Cc2ccccc2OC1=O` (stereo not given), the TGI with MDA-N, in the assay on BT-549 breast and with HCT-116 colon was above 100 µM throughout.
`Nc1nc(N)c2ncn(-c3ccc(Cl)c(Cl)c3)c2n1`: the TGI is above 100 µM in the assay on MDA-N; 77.7 µM with MDA-MB-231 breast; 32.4 µM in the assay on A498 renal; 72.6 µM with BT-549 breast; 28.7 µM with COLO 205 colon; 40.3 µM with HCT-116 colon.
On to `CN(C)Cc1cc(N=Nc2ccccc2Cl)ccc1O`, for which the TGI with MDA-N came to 33.4 µM; in the assay with MDA-MB-231 breast, 86.4 µM; in the assay with A498 renal, 26.1 µM; in the assay on BT-549 breast, 85.4 µM; with SNB-75 CNS, 55.8 µM; in the assay with COLO 205 colon, 28.6 µM. In the assay on HCT-116 colon, this compound returned a TGI above 100 µM.
On to `CC(=O)OCC1OC(O[C@@H]2C[C@H]3C(C)(C)[C@H](OC(C)=O)CC[C@]3(C)[C@H]3CC[C@]4(C)C(=CC[C@H]4[C@@H](C)C[C@@H](O)[C@H](O)C(C)(C)O)[C@@]32C)C(O)C(O)C1O` (stereo not given in full), for which the TGI worked out at 32.7 µM in the assay on MDA-N; 31.2 µM in the assay with MDA-MB-231 breast; 34 µM in the assay on A498 renal; 36.5 µM in the assay on SNB-75 CNS; 27.7 µM with COLO 205 colon; 27.5 µM in the assay with HCT-116 colon.
On to `Cc1ccc(-c2cn3c(nc4ccccc43)c(-c3ccccc3)n2)cc1`, for which the concentration for total growth inhibition (TGI) in the assay on MDA-N was above 100 µM; with MDA-MB-231 breast it was above 100 µM; in the assay on A498 renal it was above 86.5 µM; with BT-549 breast it was above 77 µM; in the assay on SNB-75 CNS it was above 47.7 µM; in the assay with COLO 205 colon, above 100 µM. Moreover, the TGI in the assay with HCT-116 colon was above 100 µM.
In the case of `CCOC(=O)/C(=C\c1ccnc2ccccc12)P(=O)(OCC)OCC`, the TGI with MDA-N is 6.74 µM; in the assay with MDA-MB-231 breast, 8.84 µM; in the assay on A498 renal, 5.98 µM; in the assay with BT-549 breast, 4.22 µM; in the assay on SNB-75 CNS it was 12 µM; in the assay with COLO 205 colon, 4.63 µM. The compound further gave a concentration for total growth inhibition (TGI) in the assay with HCT-116 colon of 3.61 µM.
Turning to `CC(C)Oc1c(C2(c3ccccc3O)SCCCS2)c(=O)c1=O`, the TGI in the assay with MDA-N, with MDA-MB-231 breast, in the assay with A498 renal, in the assay on BT-549 breast, in the assay on SNB-75 CNS and in the assay on COLO 205 colon was above 100 µM in each case. In addition, the TGI in the assay on HCT-116 colon is above 100 µM.
Regarding `NC(N)=NCc1ccc2c(c1)OCO2`, the TGI with MDA-N, in the assay with MDA-MB-231 breast, with A498 renal, in the assay with SNB-75 CNS and with HCT-116 colon was above 100 µM throughout.
As for `CN(C)CCn1c(=O)oc2cc(C(=O)CN3CCOCC3)ccc21`, the TGI in the assay with MDA-N, with MDA-MB-231 breast, with BT-549 breast, in the assay with SNB-75 CNS, in the assay with COLO 205 colon and with HCT-116 colon was above 100 µM throughout.
`CCOC(=O)CCC(NC(=O)c1ccc(Nc2cnc3cc(C(F)(F)F)ccc3n2)cc1)C(=O)OCC` (stereo not given): the TGI was above 100 µM in the assay on MDA-N; above 100 µM in the assay with MDA-MB-231 breast; 49 µM in the assay with BT-549 breast; 5.91 µM in the assay with SNB-75 CNS; above 100 µM with COLO 205 colon; above 100 µM in the assay on HCT-116 colon.
Regarding `CSC1=C(C#N)C(=O)N(c2ccc(Cl)cc2)C(=O)C1C#N` (stereo not given), the concentration for total growth inhibition (TGI) in the assay on MDA-N, in the assay with MDA-MB-231 breast, in the assay with A498 renal, in the assay on BT-549 breast, in the assay on COLO 205 colon and with HCT-116 colon was above 100 µM in each case.
Regarding `C=CCOc1ccc(C2(c3ccc(OCC=C)cc3)C(=O)Nc3ccccc32)cc1`, the TGI with MDA-N, with MDA-MB-231 breast, in the assay with A498 renal, with BT-549 breast, in the assay with SNB-75 CNS and in the assay with COLO 205 colon was above 10 µM each time. In the assay with HCT-116 colon, this compound registered a TGI above 10 µM.
As for `O=C1N(CN2CCOCC2)CN(CN2CCOCC2)C(=O)N1Cc1ccc(-c2ccc(CN3C(=O)N(CN4CCOCC4)CN(CN4CCOCC4)C3=O)cc2)cc1`, the total growth inhibition concentration (TGI) with MDA-MB-231 breast was above 73.9 µM; with A498 renal it was 44.1 µM; with BT-549 breast, 39.1 µM; in the assay with SNB-75 CNS, 49.6 µM; in the assay with COLO 205 colon it was above 41.9 µM; in the assay on HCT-116 colon, 29.7 µM.

Values taken from PubChem BioAssay (NCI).
